According to ChEMBL document CHEMBL3593181, “Design and synthesis of benzothiazole-6-sulfonamides acting as highly potent inhibitors of carbonic anhydrase isoforms I, II, IX and XII” (Bioorg Med Chem, 2015):

target: Carbonic anhydrase 9 (Homo sapiens, UniProt Q16790); assay: Inhibition of human carbonic anhydrase 9 by stopped flow CO2 hydration method

Structure (SMILES) | Ki [nM]
Nc1cc(=O)[nH]c(SCC(=O)Nc2nc3ccc(S(N)(=O)=O)cc3s2)n1 | 253
NS(=O)(=O)c1ccc2nc(NC(=O)CSc3nc(O)cc(=O)[nH]3)sc2c1 | 282
Nc1nc(SCC(=O)Nc2nc3ccc(S(N)(=O)=O)cc3s2)nc2[nH]ncc12 | 172
Nn1c(Cc2ccccc2)nnc1SCC(=O)Nc1nc2ccc(S(N)(=O)=O)cc2s1 | 244
Cc1ccc(OCc2nnc(SCC(=O)Nc3nc4ccc(S(N)(=O)=O)cc4s3)n2N)cc1Cl | 67.3
Nn1c(COc2ccc(Cl)cc2Cl)nnc1SCC(=O)Nc1nc2ccc(S(N)(=O)=O)cc2s1 | 135
NS(=O)(=O)c1ccc(NCC(=O)Nc2nc3ccc(S(N)(=O)=O)cc3s2)cc1 | 4.8
N#Cc1cnn(CC(=O)Nc2nc3ccc(S(N)(=O)=O)cc3s2)c1N | 276
CSc1nn(CC(=O)Nc2nc3ccc(S(N)(=O)=O)cc3s2)c(N)c1C#N | 295
Nc1ncnc2c1cnn2CC(=O)Nc1nc2ccc(S(N)(=O)=O)cc2s1 | 2.8
CSc1nn(CC(=O)Nc2nc3ccc(S(N)(=O)=O)cc3s2)c2ncnc(N)c12 | 2.7
NS(=O)(=O)c1ccc2nc(NC(=O)Cn3ncc4c(=O)[nH]cnc43)sc2c1 | 4.1
CSc1nn(CC(=O)Nc2nc3ccc(S(N)(=O)=O)cc3s2)c2nc[nH]c(=O)c12 | 4.3
N#Cc1cnn(CC(=O)Nc2nc3ccc(S(N)(=O)=O)cc3s2)c1NC(=S)Nc1ccccc1 | 2.8
CSc1nn(CC(=O)Nc2nc3ccc(S(N)(=O)=O)cc3s2)c(NC(=S)Nc2ccccc2)c1C#N | 3.9
NS(=O)(=O)c1ccc2nc(NC(=S)NCCNC(=S)Nc3nc4ccc(S(N)(=O)=O)cc4s3)sc2c1 | 2.1
NS(=O)(=O)c1ccc2nc(NC(=S)N3CCN(C(=S)Nc4nc5ccc(S(N)(=O)=O)cc5s4)CC3)sc2c1 | 2.6
CS/C(=N\c1nc2ccc(S(N)(=O)=O)cc2s1)NCCN/C(=N/c1nc2ccc(S(N)(=O)=O)cc2s1)SC | 2.5
CS/C(=N\c1nc2ccc(S(N)(=O)=O)cc2s1)N1CCN(/C(=N/c2nc3ccc(S(N)(=O)=O)cc3s2)SC)CC1 | 2.3
